Laboratory results: patent publication US8586598B2, “CDK inhibitor salts” (Nerviano Medical Sciences S.R.L., priority 2009, dated 2013)
In brackets after ≈: the same amount, converted by molar mass. Where two headings read alike, the source gives them in different places.

How the values were obtained:
[1] = Solubility (no method given); type: physicochemical
[2] = Solubility of compound 125 salts and free base (96-well plate, shaken at RT 30 minutes, filtered, HPLC); type: physicochemical; conditions: thermodynamic from solid

**Q.** With `CNC(=O)c1nn(C)c2c1C(C)(C)Cc1cnc(Nc3ccc(N4CCN(C)CC4)cc3)nc1-2` [compound 125, 8-[4-(4-methyl-piperazin-1-yl)-phenylamino]-1,4,4-trimethyl-4,5-dihydro-1H-pyrazolo[4,3-h]quinazoline-3-carboxylic acid methylamide] as the molecule, how does the solubility ([1]; 5% dextrose solution, saline or isotonic, read-out: solubility in 5% dextrose solution) read?
**A.** < 100 µg/mL

**Q.** And the solubility ([1]; HCl in situ salt formulation, formulated as HCl in situ salt, read-out: solubility when formulated as HCl in situ salt)?
**A.** ≥ 10000 µg/mL

**Q.** And the solubility ([1]; aqueous 10% Polysorbate 80, aqueous with cosolvent or surfactant or cyclodextrin)?
**A.** ~800 µg/mL (≈ 1740 µM)

**Q.** And the solubility ([1]; aqueous 50% Polyethylene Glycol 400, aqueous with cosolvent or surfactant or cyclodextrin, read-out: solubility in aqueous 50% Polyethylene Glycol 400)?
**A.** ~8000 µg/mL (≈ 17400 µM)

**Q.** What about the solubility ([1]; water, read-out: aqueous solubility) of the same molecule?
**A.** < 100 µg/mL

**Q.** What about the solubility at 30 min ([2]; 10% polysorbate 80 in 5% glucose solution, aqueous with cosolvent or surfactant or cyclodextrin) of the same molecule?
**A.** 800 µg/mL

**Q.** What about the solubility at 30 min ([2]; 50% polyethylene glycol 400 in 5% glucose solution, aqueous with cosolvent or surfactant or cyclodextrin, read-out: solubility in 50% polyethylene glycol 400 in 5% glucose solution) of the same molecule?
**A.** 7200 µg/mL

**Q.** And the solubility at 30 min ([2]; saline or isotonic, 5% glucose solution, RT, 30 minutes, read-out: solubility in 5% glucose solution)?
**A.** < 100 µg/mL

**Q.** What about the solubility at 30 min ([2]; formulated as hydrochloride in situ salt, read-out: solubility when formulated as hydrochloride in situ salt) of the same molecule?
**A.** 10000 µg/mL
